US20090062124A1, “Ethephon-induced enhancement of seedling development” (priority 2007, published 2009)
Where “and” joins values, the source holds several entries; their conditions need not be identical. Equal values may be shown once.

What was measured:
Format in all cases: in vivo
[1] = test system: dryland field grown cotton; experiment: Dryland field grown cotton sprayed with ethephon, seed cotton yield; settings: 3.8 mM single spray at cotyledon, two leaf or four leaf stage; vs non-treated controls; FIG. 1
Experimental: The effects of ethephon treatment on dryland field grown cotton were measured. All plants in the treatment groups received a single application by spraying of 3.8 mM ethephon at either the cotyledon stage, two leaf stage, and four leaf stage. Cotton yields, measured as seed cotton weight, were measured at the end of the season following harvest.

Cotton plants = Cotton plants sprayed with ethephon at the cotyledon stage in greenhouse conditions
Experimental: (§1) Cotton plants were treated with ethephon in greenhouse conditions to evaluate the effects of ethephon application. All plants in the treatment groups received a single application by spraying of various concentrations of aqueous solutions of ethephon (0, 1.0, 3.8, 7.6, and 15.2 mM ethephon) to plants at the cotyledon stage. Lateral root production, leaf numbers and leaf size, and number of cotton squares were determined 7 to 80 days after spraying. To evaluate the effect on as a seed treatment, cotton seeds were soaked in aqueous ethephon solutions (10, 20, 30, and 50 mM) for 10 seconds prior to planting.

[2] = test system: Soybean seedlings (46G02 RR/STS, Kelly Green Seeds); experiment: Soybean seedlings sprayed with ethephon in greenhouse conditions
Experimental: Soybean seedlings (46G02 RR/STS, Kelly Green Seeds) at the cotyledon—second leaf stage were treated with ethephon in greenhouse conditions to evaluate the effects of ethephon application. All plants in the treatment groups received a single application by spraying of various concentrations of aqueous solutions of ethephon (0, 1.0, 3.8, 7.6, and 15.2 mM ethephon) to plants at the cotyledon stage. Root development, measured as tap root and lateral root lengths, and seedling growth were determined 7 days after spraying.

Corn seedlings = Corn seedlings sprayed with ethephon in greenhouse conditions
Experimental: (§2) The effects of ethephon treatment on the root development of corn and wheat was evaluated. Corn and wheat seedlings at the two to three leaf stage were treated with ethephon in greenhouse conditions. All plants in the treatment groups received a single application by spraying of various concentrations of aqueous solutions of ethephon (0, 1.0, 3.8, 7.6, 11.4, 15.2 and 30.4 mM ethephon for wheat, and 0, 3.8, 5.7, 7.6, 11.4, 15.2, 30.4, 45.6, and […] ethephon for corn) to plants at the cotyledon stage. Root development, measured as tap root and lateral root lengths for corn and tap root length for wheat, and shoot length and root hair production were also determined for wheat, seven days after spraying. To evaluate the effect on as a seed treatment, wheat and corn seeds were soaked in aqueous ethephon solutions (90 mM) for 10 seconds prior to planting.

cotton seeds = experiment: Cotton seeds soaked in aqueous ethephon solutions prior to planting; settings: seeds soaked 10 seconds; 10, 20, 30 and 50 mM tested
Experimental: as §1

wheat seedlings = experiment: Wheat seedlings sprayed with ethephon in greenhouse conditions; settings: between 1 mM and 7.6 mM ethephon, seven days after spraying, vs untreated controls
Experimental: as §2

[3] = spray, 0, 1.0, 3.8, 7.6 and 15.2 mM tested
[4] = sprayed cotton, 7 to 80 days after spraying
[5] = 7 days after spraying, vs untreated controls
[6] = between 3.8 and 11.4 mM ethephon, seven days after spraying, vs untreated controls

## O=P(O)(O)CCCl [Ethephon, (2-chloroethyl)phosphonic acid]
[1]
  cotton yields (seed cotton weight): significantly increased yields
Cotton plants; 3.8 mM ethephon vs control
  increase in fruiting sites (cotton squares): 30%
Cotton plants; 3.8 mM ethephon, single spray at cotyledon stage, greenhouse, average of 3 reps (control 42)
  Average # of squares: 55
Cotton plants; 3.8 mM ethephon, single spray at cotyledon stage, greenhouse, per rep
  Number of squares: 58 and 54 and 53
Cotton plants; [3]
  ethephon concentration giving optimum results: 3.8 mM
Cotton plants; [4]
  fruiting (number of cotton squares): increased fruiting
  lateral root development: statistically significant increases
  leaf size: without a decrease in leaf size
  rate of leaf production (measured as numbers of leaves): statistically significant increases
[2]; [5]
  seedling growth: statistically significant increases
  taproot and lateral root development: statistically significant increases
[2]; [3]
  ethephon concentration giving optimum results: 3.8 mM
Corn seedlings; [6]
  lateral root length: statistically significant increases
  taproot length: statistically significant increases
Corn seedlings; spray, FIG. 4
  ethephon concentration giving optimum results: 7.6 mM
Cotton seeds
  optimum seed soak concentration: 30 mM
Wheat seedlings
  shoot length: statistically significant increases
  taproot length: statistically significant increases
